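Following 48 hours of exposure in 96-well plates, responses at five concentrations were used to interpolate endpoints linearly. At the GI50, growth is halved.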 Activity calls are given as the source filed them. Cut-off read from the data, not from the text of the source: active = GI50 up to about 1.1 µM and inactive = higher. Some results are limits rather than exact numbers.

What all share (assay): NCI tumour cell line growth inhibition, 48 h
For test [1], the system named is Hs-578T.
Test [2] relates to SF-539.
The test system of test [3] is HT-29.
For test [4], the system named is LOX IMVI.
Test [5] concerns A549.
Test [6] deals with DU-145.
Test [7] relates to CCRF-CEM.
Test [8] relates to UACC-257.
Test [9] concerns EKVX.
For test [10], the system named is NCI/ADR-RES.
For test [11], the system named is UACC-62.
Test [12] relates to NCI-H522.
In test [13] the test system is U-251.
For test [14], the system named is K562.
The subject of test [15] is SW-620.
In test [16] the test system is OVCAR-8.
Test [17] concerns HCC 2998.
Test [18] deals with OVCAR-3.
The subject of test [19] is COLO 205.
The test system of test [20] is UO-31.

Take `CC(C)OC(=O)OCSc1ccccc1/N=C/c1cccc([N+](=O)[O-])c1`: the GI50 in test [1], in [2], in test [3], in test [4], in test [5] and in [6] was > 10 µM (inactive) each time. The GI50 in [7], in [8], in test [9], in test [10], in test [11] and in test [12] was > 10 µM (inactive) each time. Moreover, the GI50 in test [13], in test [14], in [15], in [16], in test [17] and in test [18] was > 10 µM (inactive) each time. The GI50 in [19] and in test [20] was > 10 µM (inactive) in each case.
Turning to `C/C=C/C[C@@H](C)C(=O)C1C(=O)N[C@@H](C(C)C)C(=O)N(C)CC(=O)N(C)[C@@H](CC(C)C)C(=O)N[C@@H](C(C)C)C(=O)N(C)[C@@H](CC(C)C)C(=O)N[C@@H](C)C(=O)N[C@@H](C)C(=O)N(C)[C@@H](CC(C)C)C(=O)N(C)[C@@H](CC(C)C)C(=O)N(C)[C@@H](C(C)C)C(=O)N1C` (stereo partly specified), the GI50 was 6.21 µM (inactive) in test [1]; 4.23 µM (inactive) in test [2]; 3.8 µM (inactive) in [3]; 2.82 µM (inactive) in test [4]; 3.97 µM (inactive) in test [5]; 4.06 µM (inactive) in test [6]. Besides, the GI50 in [7] is 4.06 µM (inactive); in [8], 5.33 µM (inactive); in test [9] it was 8.51 µM (inactive); in test [10], 2.74 µM (inactive); in test [11], 4.5 µM (inactive); in [12] it was 4.19 µM (inactive). Further, the GI50 in test [13] was 5.94 µM (inactive); in [14], 4.45 µM (inactive); in test [15], 5.24 µM (inactive); in [16], 9.82 µM (inactive); in test [17], 2.46 µM (inactive); in [18], 4.09 µM (inactive). Besides, in test [20], the GI50 is 3.78 µM (inactive).
Turning to `COc1ccc(CCc2ccc3c(c2)OCO3)cc1`, the GI50 in [1] was 86.3 µM (inactive); in [2], 92 µM (inactive); in test [3], 28.7 µM (inactive); in test [4] it was 73.6 µM (inactive); in [5], 68.9 µM (inactive); in test [6], 43 µM (inactive). Further, the GI50 in test [7] is 35.9 µM (inactive); in test [8], 77.1 µM (inactive); in test [9], 66.8 µM (inactive); in [10], 77.4 µM (inactive); in test [11] it was > 100 µM (inactive); in [12], 51.3 µM (inactive). Further, the GI50 in test [13] was 33.7 µM (inactive); in test [14] it was 38.5 µM (inactive); in test [15], 32.8 µM (inactive); in test [16], > 100 µM (inactive); in test [17] it was 79.4 µM (inactive); in test [18] it was 31.6 µM (inactive). The GI50 in test [19] was > 100 µM (inactive).
Consider `C=C(Cl)/C(=C\Br)CCC(Cl)C(C)C.C=C(Cl)/C(=C\Cl)CCC(Cl)C(C)C` (stereo unspecified), for which the GI50 in [1] was 11.9 µM (inactive); in [2], 18.2 µM (inactive); in test [3], 17.7 µM (inactive); in test [4] it was 1.67 µM (inactive); in test [5], 28 µM (inactive); in test [6] it was 18 µM (inactive). Further, the GI50 in test [7] was 5.62 µM (inactive); in test [8] it was 13.6 µM (inactive); in [9] it was 18.7 µM (inactive); in test [10] it was 27.5 µM (inactive); in test [11], 12.7 µM (inactive); in test [12], 4.73 µM (inactive). Moreover, the GI50 in test [13] is 16.4 µM (inactive); in test [14], 4.03 µM (inactive); in test [15], 2.75 µM (inactive); in [17] it was 18.7 µM (inactive); in test [18], 16.5 µM (inactive); in test [19] it was 26.3 µM (inactive). Also, the GI50 in test [20] was 18.2 µM (inactive).
With `CCOC(=O)C(NC(C)=O)(Nc1ccc(S(N)(=O)=O)cc1)C(F)(F)F` (stereo unspecified), the GI50 in test [1], in test [2], in [3], in test [4], in test [5] and in [6] was > 100 µM (inactive) throughout. For the same compound, the GI50 in test [7], in test [8], in test [9], in test [10], in test [12] and in test [13] was > 100 µM (inactive) throughout. The GI50 in test [14], in test [15], in [16], in test [17], in test [18] and in test [19] was > 100 µM (inactive) in each case. Moreover, the GI50 in test [20] was > 100 µM (inactive).
`O=c1cc(-c2ccccc2F)[nH]c2ccc(N3CCCC3)cc12`: the GI50 in test [1] was 0.0201 µM (active); in test [2], < 0.001 µM (active); in [3], 0.0284 µM (active); in [4], 0.0398 µM (active); in test [5], 0.0504 µM (active); in test [6], 0.0535 µM (active). Also, the GI50 is 0.0461 µM (active) in test [7]; 0.1 µM (active) in test [8]; 0.00138 µM (active) in test [9]; 0.0352 µM (active) in test [10]; 0.0185 µM (active) in test [11]; 0.0326 µM (active) in test [12]. Also, the GI50 in test [13] is 0.0381 µM (active); in test [14], 0.0257 µM (active); in test [15], < 0.001 µM (active); in test [16], 0.0624 µM (active); in test [17], 0.00179 µM (active); in test [19], 0.0557 µM (active). Moreover, in test [20], the GI50 was 0.00274 µM (active).
For the compound `Cc1ccc(-c2cc(-c3ccc(Cl)cc3)nc(/N=C3\C(=O)N(CN4CCOCC4)c4ccccc43)n2)cc1`, the GI50 in [1] was 22.9 µM (inactive); in test [2] it was 19.5 µM (inactive); in [3], 20.1 µM (inactive); in test [4], 24.2 µM (inactive); in test [5], 17.5 µM (inactive); in [6], 33.2 µM (inactive). For the same compound, the GI50 was 14.3 µM (inactive) in test [7]; 19.5 µM (inactive) in [8]; 30.8 µM (inactive) in test [9]; 27.2 µM (inactive) in test [10]; 20 µM (inactive) in test [11]; 14.3 µM (inactive) in test [12]. Further, the GI50 in [13] was 23.7 µM (inactive); in test [14] it was 23.1 µM (inactive); in [15] it was 17 µM (inactive); in [16], 19.5 µM (inactive); in test [17], 18.6 µM (inactive); in test [18], 33.9 µM (inactive). Also, the GI50 in [19] is 26 µM (inactive).
Take `Clc1ccc(/C=N/C23CC4CC(CC(C4)C2)C3)c(Cl)c1`: the GI50 in [1], in [2], in test [3], in test [4], in [5] and in [6] was > 10 µM (inactive) in each case. The GI50 in [7], in test [8], in test [9], in [10], in test [11] and in test [12] was > 10 µM (inactive) in each case. Further, the GI50 in test [13], in test [14], in test [15], in [16], in [17] and in test [18] was > 10 µM (inactive) in each case. Further, the GI50 in test [19] was > 10 µM (inactive).
Take `C/C(=C\[Si](C)(C)c1ccco1)C(C)(O)[C@H](C)O` (stereo partly specified): the GI50 in [1] is 55.3 µM (inactive); in [2], > 100 µM (inactive); in test [3] it was 41 µM (inactive); in [4], > 100 µM (inactive); in test [5] it was 48.2 µM (inactive); in test [6], 38.4 µM (inactive). For the same compound, the GI50 was 32.9 µM (inactive) in [7]; 24.6 µM (inactive) in [8]; 42.6 µM (inactive) in test [9]; 43.7 µM (inactive) in [10]; > 100 µM (inactive) in [11]; 30.3 µM (inactive) in [12]. In addition, the GI50 in [13] was > 100 µM (inactive); in test [14], 32.3 µM (inactive); in test [15], 84.9 µM (inactive); in test [16] it was 55.1 µM (inactive); in [17], 34.8 µM (inactive); in [18] it was 54.5 µM (inactive). Also, the GI50 in test [19] is 36.5 µM (inactive).
As for `CC1OCC2OC(C)OC(C3C4=C(CC(C)(C)CC4=O)OC4=C3C(=O)CC(C)(C)C4)C2O1` (stereo unspecified), the GI50 in test [1], in [2], in test [3], in test [4], in test [5] and in test [6] was > 100 µM (inactive) in each case. For the same compound, the GI50 in test [7], in test [8], in [9], in [10], in test [11] and in [12] was > 100 µM (inactive) each time. Besides, the GI50 in test [14], in test [15], in test [16], in test [17], in test [18] and in [19] was > 100 µM (inactive) each time. Moreover, the GI50 in [20] is > 100 µM (inactive).
